Measured values published in DBAASP.
≈ marks a conversion by molar mass, not a printed value. Each block holds one molecule with its values, some of them ahead of it.

Key:
Assay in all cases: ≥ marks a high value that may be exact or a test limit, other limits are often not marked, values filed in µg/mL are converted to µM
[1] = tested on: Candida glabrata 090902
[2] = tested on: Enterobacter cloacae CGMCC 1.57
[3] = tested on: Enterococcus faecalis 981
[4] = tested on: Enterococcus faecium 091299
[5] = tested on: Escherichia coli ATCC 25922
[6] = tested on: Klebsiella pneumoniae 08040724
[7] = tested on: Nocardia asteroides 201118
[8] = tested on: Psychrobacter faecalis X29
[9] = tested on: Staphylococcus aureus ATCC 25923
[10] = tested on: Bacillus subtilis CMCC 63501
[11] = tested on: Enterococcus faecalis ATCC 29212
[12] = tested on: Pseudomonas aeruginosa ATCC 27853
[13] = tested on: Salmonella enterica subsp. enterica serovar Pullorum C79-13
[14] = tested on: Salmonella enterica subsp. enterica serovar Typhimurium C77-31
[15] = tested on: Staphylococcus aureus ATCC 29213
[16] = tested on: Staphylococcus epidermidis ATCC 12228
[17] = tested on: Aspergillus flavus ATCC 24109
[18] = tested on: Aspergillus fumigatus ATCC 1022
[19] = tested on: Aspergillus niger ATCC 9142
[20] = tested on: Bacillus subtilis ATCC 6051
[21] = tested on: Candida albicans ATCC 10231
[22] = tested on: Candida glabrata ATCC 90030
[23] = tested on: Candida krusei ATCC 28870
[24] = tested on: Cryptococcus neoformans ATCC 2517
[25] = tested on: Microsporum canis PTCC 5069
[26] = tested on: Saccharomyces cerevisiae PTCC 5052
[27] = tested on: Trichophyton mentagrophytes ATCC 32510
[28] = tested on: Cronobacter muytjensii ATCC 51329
[29] = tested on: Cronobacter sakazakii ATCC BAA-894
[30] = tested on: Cronobacter sakazakii DPC 6440
[31] = tested on: Cronobacter sakazakii DSM 4485
[32] = tested on: Escherichia coli NCIMB 11843
[33] = tested on: Klebsiella pneumoniae NCIMB 13218
[34] = tested on: Pseudomonas fluorescens NCIMB 9046
[35] = tested on: Salmonella enterica subsp. enterica serovar Typhimurium LT2
[36] = tested on: Staphylococcus aureus NCTC 8325-4
[37] = tested on: Staphylococcus aureus Newman
[38] = tested on: Staphylococcus aureus RF122
[39] = tested on: Staphylococcus aureus RN4220
[40] = tested on: Staphylococcus aureus SA113
[41] = tested on: Acinetobacter baumannii ABA1
[42] = tested on: Acinetobacter baumannii ABA2
[43] = tested on: Acinetobacter baumannii
[44] = tested on: Escherichia coli ECO1
[45] = tested on: Escherichia coli ECO2
[46] = tested on: Escherichia coli
[47] = tested on: Porphyromonas gingivalis ATCC 33277
[48] = tested on: Pseudomonas aeruginosa PAER10
[49] = tested on: Pseudomonas aeruginosa PAER1
[50] = tested on: Pseudomonas aeruginosa PAER4
[51] = tested on: Pseudomonas aeruginosa PAER7
[52] = tested on: Pseudomonas aeruginosa PAO1
[53] = tested on: Pseudomonas aeruginosa
[54] = tested on: Salmonella enterica serovar Typhimurium
[55] = tested on: Staphylococcus aureus S5375
[56] = tested on: Staphylococcus aureus SAU2
[57] = tested on: Staphylococcus aureus SAU5
[58] = tested on: Staphylococcus aureus SAU7
[59] = tested on: Staphylococcus aureus

- MIC [1]: 6.3 µM (≈ 16.6 µg/mL)
- MIC [2]: ≥ 100 µM
- MIC [3]: 6.3 µM (≈ 16.6 µg/mL)
- MIC [4]: ≥ 50 µM
- MIC [5]: 100 µM (≈ 263 µg/mL)
- MIC [6]: ≥ 100 µM
- MIC [7]: 3.1 µM (≈ 8.16 µg/mL)
- MIC [8]: 12.5 µM (≈ 32.9 µg/mL)
- MIC [9]: 6.3 µM (≈ 16.6 µg/mL)
Structure (SMILES): CC[C@H](C)[C@@H]1NC(=O)[C@H](CCCCN)NC(=O)[C@@H](NC(=O)[C@@H](NC(=O)[C@@H](NC(=O)[C@H](CCCCN)NC(=O)[C@@H]2CCCN2C(=O)[C@H](CC(C)C)NC(=O)[C@H](Cc2ccccc2)NC(=O)[C@H](CC(N)=O)NC(=O)[C@H](C)NC(=O)[C@H](C)NC(=O)[C@H](CC(C)C)NC(=O)CNC(=O)[C@H](C)NC(=O)[C@H](CC(C)C)NC(=O)[C@H](CCSC)NC(=O)[C@@H]2CCCN2C(=O)[C@H](CC(C)C)NC(=O)[C@@H](N)Cc2ccccc2)[C@@H](C)CC)[C@@H](C)CC)CSSC[C@@H](C(=O)O)NC(=O)[C@H](CCCCN)NC(=O)[C@H](CCCCN)NC(=O)[C@H]([C@@H](C)O)NC1=O [FLPMLAGLAANFLPKIICKITKKC]

- MIC [10]: 4 µM (≈ 5.78 µg/mL)
- MIC [11]: 32 µM (≈ 46.3 µg/mL)
- MIC [5]: 4 µM (≈ 5.78 µg/mL)
- MIC [12]: > 128 µM
- MIC [13]: 16 µM (≈ 23.1 µg/mL)
- MIC [14]: ≥ 32 µM
- MIC [15]: 32 µM (≈ 46.3 µg/mL)
- MIC [16]: 16 µM (≈ 23.1 µg/mL)
Structure (SMILES): NC(=O)[C@H](Cc1ccccc1)NC(=O)[C@H](CCCN=C(N)N)NC(=O)[C@H](CS)NC(=O)[C@H](Cc1ccccc1)NC(=O)[C@H](CCCN=C(N)N)NC(=O)[C@H](CCCN=C(N)N)NC(=O)[C@H](CCCN=C(N)N)NC(=O)[C@H](CS)NC(=O)[C@H](CCCN=C(N)N)NC(=O)[C@@H](N)Cc1ccccc1 [FRCRRRFCRF]

- MIC [17]: ≥ 675 µM
- MIC [18]: ≥ 84.4 µM
- MIC [19]: ≥ 675 µM
- MIC [20]: ≥ 172 µM
- MIC [21]: 84.4 µM (≈ 125 µg/mL)
- MIC [22]: ≥ 675 µM
- MIC [23]: ≥ 338 µM
- MIC [24]: ≥ 675 µM
- MIC [11]: 84.4 µM (≈ 125 µg/mL)
- MIC [5]: 84.4 µM (≈ 125 µg/mL)
- MIC [25]: ≥ 675 µM
- MIC [12]: > 675 µM
- MIC [26]: ≥ 84.4 µM
- MIC [9]: > 675 µM
- MIC [27]: ≥ 675 µM
Structure (SMILES): CC[C@H](C)[C@H](NC(=O)[C@H](CCCCN)NC(=O)[C@H](CCCCN)NC(=O)[C@@H](NC(=O)[C@@H](NC(=O)[C@H](CC(=O)O)NC(=O)[C@H](Cc1ccccc1)NC(=O)[C@H](CC(C)C)NC(=O)CN)[C@@H](C)CC)[C@@H](C)CC)C(=O)N[C@@H](C)C(=O)N[C@@H](CCC(=O)O)C(=O)N[C@@H](CO)C(=O)N[C@@H](Cc1ccccc1)C(=O)O [GLFDIIKKIAESF]

- MIC [28]: ≥ 1250 µM
- MIC [29]: ≥ 1250 µM
- MIC [30]: ≥ 1250 µM
- MIC [31]: ≥ 1250 µM
- MIC [32]: ≥ 1250 µM
- MIC [33]: ≥ 1250 µM
- MIC [34]: ≥ 1250 µM
- MIC [35]: ≥ 1250 µM
- MIC [36]: ≥ 1250 µM
- MIC [37]: ≥ 1250 µM
- MIC [38]: ≥ 1250 µM
- MIC [39]: ≥ 1250 µM
- MIC [40]: ≥ 625 µM
Structure (SMILES): CC(C)C[C@H](NC(=O)[C@H](CCCN=C(N)N)NC(=O)[C@H](C)NC(=O)[C@H](CC(N)=O)NC(=O)[C@H](CCC(=O)O)NC(=O)[C@H](CC(N)=O)NC(=O)[C@H](CC(C)C)NC(=O)[C@@H](N)C(C)C)C(=O)O [VLNENARL]

- MIC [41]: 5.25 µM (≈ 8 µg/mL)
- MIC [42]: 7.42 µM (≈ 11.3 µg/mL)
- MIC [43]: 10.5 µM (≈ 16 µg/mL)
- MIC [5]: 10.5 µM (≈ 16 µg/mL)
- MIC [44]: 3.71 µM (≈ 5.66 µg/mL)
- MIC [45]: 3.71 µM (≈ 5.66 µg/mL)
- MIC [46]: 42 µM (≈ 64 µg/mL)
- MIC [47]: 5.25 µM (≈ 8 µg/mL)
- MIC [48]: 2.62 µM (≈ 4 µg/mL)
- MIC [49]: 3.71 µM (≈ 5.66 µg/mL)
- MIC [50]: 10.5 µM (≈ 16 µg/mL)
- MIC [51]: 21 µM (≈ 32 µg/mL)
- MIC [52]: 10.5 µM (≈ 16 µg/mL)
- MIC [53]: 10.5 µM (≈ 16 µg/mL)
- MIC [54]: 5.25 µM (≈ 8 µg/mL)
- MIC [9]: 10.5 µM (≈ 16 µg/mL)
- MIC [55]: 14.8 µM (≈ 22.6 µg/mL)
- MIC [56]: 21 µM (≈ 32 µg/mL)
- MIC [57]: 21 µM (≈ 32 µg/mL)
- MIC [58]: 21 µM (≈ 32 µg/mL)
- MIC [59]: 14.8 µM (≈ 22.6 µg/mL)
Structure (SMILES): CC[C@H](C)[C@H](NC(=O)[C@H](CCCN=C(N)N)NC(=O)[C@H](Cc1c[nH]c2ccccc12)NC(=O)[C@H](CCC(N)=O)NC(=O)[C@@H](N)C(C)C)C(=O)N[C@@H](CCCN=C(N)N)C(=O)N[C@H](C(=O)N[C@@H](C)C(=O)N[C@H](C(=O)N[C@H](C(=O)N[C@@H](CCCN=C(N)N)C(=O)N[C@@H](CCCCN)C(=O)O)[C@@H](C)CC)C(C)C)C(C)C [VQWRIRVAVIRK]
